The test system of data set [1] is Enterococcus faecalis CSJ 1212. The data set can be described thus: antibacterial test, agar plate dilution method. The data set is classed as cell-based. The settings on record: inoculum size 10⁶ cells/ml. As to the method: (§1) The antibacterial test against various bacteria was carried out by the agar plate dilution method (inoculum size : 10⁶ cells/ml), and the results are shown in the following Table 1.

The test system of data set [2] is Eschelichia coli NIHJ JC-2. Briefly: antibacterial test, agar plate dilution method. Particulars: inoculum size 10⁶ cells/ml. The data set is classed as cell-based. As to the method: as §1
Data set [3] has as its system Haemophilus influenzae ATCC 19418. Briefly: antibacterial test, agar plate dilution method. The data set is classed as cell-based. The settings on record: inoculum size 10⁶ cells/ml. On the procedure:
as §1

The test system of data set [4] is Klebsiella pneumoniae IFO 3317. The data set can be described thus: antibacterial test, agar plate dilution method. The data set is classed as cell-based. Particulars: inoculum size 10⁶ cells/ml. As to the method:
as §1

Data set [5] has as its system Morganella morganii IID 602. The data set can be described thus: antibacterial test, agar plate dilution method. The settings on record: inoculum size 10⁶ cells/ml. The data set is classed as cell-based. As to the method: as §1
The test system of data set [6] is Proteus mirabilis IFO 3849. The data set can be described thus: antibacterial test, agar plate dilution method. Particulars: inoculum size 10⁶ cells/ml. The data set is classed as cell-based. As to the method:
as §1

Data set [7] has as its system Serratia marcescens IID 618. The data set can be described thus: antibacterial test, agar plate dilution method. The data set is classed as cell-based. Particulars: inoculum size 10⁶ cells/ml. On the procedure:
as §1

The test system of data set [8] is Staphylococcus aureus 209P-JP. The data set can be described thus: antibacterial test, agar plate dilution method. Particulars: inoculum size 10⁶ cells/ml. The data set is classed as cell-based. As to the method:
as §1

Data set [9] concerns Staphylococcus epidermidis sp-al-1. The data set can be described thus: antibacterial test, agar plate dilution method. The settings on record: inoculum size 10⁶ cells/ml. The data set is classed as cell-based. On the procedure: as §1
Data set [10] can be described thus: concentration of the drug in blood after oral administration to mice. The data set is classed as in vivo, male ICR strain mice. The settings on record: 20 mg/kg suspended in 5% gum arabic, bioassay (Bacillus cereus S1101). Further details: unit not given here. As to the method:
Three male ICR strain mice (4 weeks old) for each group were administered orally with the test drug, and the change of the concentration of the drug in blood was measured with the lapse of time. Dose of drug: 20 mg/kg (suspended in 5% gum arabic) Quantitative method: Bioassay method (test bacteria: Bacillus cereus S1101)

A short description of data set [11]: mortality after a single intraperitoneal dose in mice. The data set is classed as in vivo, male ICR strain mice. The settings on record: single dose 4,000 mg/kg intraperitoneal, 50 ml/kg (saline), 3 mice per group, observation for 14 days. On the procedure:
The mortality after a single dose of the test drug was measured using 3 male ICR strain mice (4 weeks old) for each group. Administration route : intraperitoneal Administration volume : 50 ml/kg (saline) Dose : 4,000 mg/kg Observation period : for 14 days after the administration The results are shown in Table 3.

Take `C=CC1=C(C(=O)O)N2C(=O)[C@@H](NC(=O)/C(=N\O)c3csc(N)n3)[C@H]2SC1` [C, Cefnidir]: the antibacterial activity worked out at 1.56 in data set [1]; 0.39 in data set [2]; 0.39 in data set [3]; 0.10 in data set [4]; 0.78 in data set [5]; 0.20 in [6]. Besides, the antibacterial activity in data set [7] was found to be 0.78; in [8], 0.39; in [9], 0.39. Also, the “concentration of the drug in blood” value turned out to be 1.8 in data set [10] (0.25 hour after administration); 2.0 in data set [10] (0.5 hour after administration); 2.5 in data set [10] (1.0 hour after administration); 1.2 in [10] (2.0 hour after administration); 0.1 in data set [10] (4.0 hour after administration).

As for `C=CC1=C(C(=O)O)N2C(=O)[C@@H](NC(=O)/C(=N\OCC(=O)O)c3csc(N)n3)[C@H]2SC1` [B, Cefixime], the antibacterial activity in [1] is reported as greater than 100; in [2], 0.39; in [3] it was 0.05; in data set [4], 0.025; in data set [5], 0.20; in data set [6], 0.025. Besides, the antibacterial activity in data set [7] turned out to be 0.20; in [8], 25; in [9] it was 25.

On to `C#CCSC1=C(C(=O)[O-])N2C(=O)[C@@H](NC(=O)/C(=N\O)c3csc(N)n3)[C@H]2SC1.[Na+]` [A, 7β-{2-(2-aminothiazol-4-yl)-2-[(Z)-hydroxyimino]-acetamido}-3-(2-propynyl)thio-3-cephem-4-carboxylic acid sodium salt], for which the antibacterial activity in data set [1] amounted to 1.56; in [2], 0.20; in data set [3], 0.20; in [4], 0.05; in [5], 0.10; in data set [6], 0.10. For the same compound, the antibacterial activity in data set [7] turned out to be 0.78; in data set [8] it was 0.20; in [9] it was 0.20. Moreover, in [11], the Mortality is 0/3.

With `C=CCSC1=C(C(=O)[O-])N2C(=O)[C@@H](NC(=O)/C(=N\O)c3csc(N)n3)[C@H]2SC1.[Na+]` [D, 7β-{2-(2-aminothiazol-4-yl)-2-[(Z)-hydroxyimino]acetamido}-3-allylthio-3-cephem-4-carboxylic acid sodium salt], the antibacterial activity was determined as 3.13 in [1]; 0.39 in data set [2]; 0.39 in [3]; 0.20 in data set [4]; 0.20 in [5]; 0.20 in data set [6]. Further, the antibacterial activity in [7] is given as 1.56; in data set [8], 0.20; in data set [9], 0.20. The Mortality in [11] is listed as 2/3.

Take `C#CCSC1=C(C(=O)OCOC(=O)C(C)(C)C)N2C(=O)[C@@H](NC(=O)/C(=N\O)c3csc(N)n3)[C@H]2SC1` [E, pivaloyloxymethyl 7β-{2-(2-aminothiazol-4-yl)-2-[(Z)-hydroxyimino]acetamido}-3-(2-propynyl)thio-3-cephem-4-carboxylate]: the “concentration of the drug in blood” value in [10] (0.25 hour after administration) came to 14.0; in [10] (0.5 hour after administration), 18.4; in [10] (1.0 hour after administration), 15.4; in data set [10] (2.0 hour after administration), 8.4; in data set [10] (4.0 hour after administration), 4.0.

The values above are taken from patent publication EP0652220A1, “CEPHALOSPORIN DERIVATIVE” (TAISHO PHARMACEUTICAL CO. LTD, priority 1992, dated 1994).
